Earlier results, collected in patent US20250064735A1, “CONTAINER SYSTEM AND PHARMACEUTICAL FOAM COMPOSITION COMPRISING BETAMETHASONE” (Glenmark Pharmaceuticals Limited, priority 2018, published 2025).

SMILES | pH at which the substance is stable
CC1C[C@H]2[C@@H]3CCC4=CC(=O)C=C[C@]4(C)[C@@]3(F)C(O)C[C@]2(C)[C@@]1(O)C(=O)CO (some centres unmarked) [Betamethasone, 9-fluoro-11,17,21-trihydroxy-16-methylpregna-1,4-diene-3,20-dione] | 4-6
C=C1/C(=C\C=C2/CCC[C@]3(C)[C@@H]([C@H](C)/C=C/[C@@H](O)C4CC4)CC[C@@H]23)C[C@@H](O)C[C@@H]1O [Calcipotriene] | greater than 8
